# According to patent US11648287B2, “Composition for the treatment of intracellular bacterial infection” (priority 2017, dated 2023):
# Columns and labels:
# zebrafish embryos [1] = assay: Toxicity test of gentamicin alone or combined with TPCS2a in zebrafish embryos; type: in vivo; conditions: for toxicity to zebrafish embryos (survival): graded doses injected per embryo; for maximal non-toxic concentrations: injection at 32 hpf, illumination 10 minutes, survival until 6 dpi
# Experimental: (§1) Injection into the blood circulation of zebrafish embryos via either the blood island or the duct of Cuvier (Benard et al., 2012, Journal of visualized experiments: JoVE, 61) was performed following the injection procedure described earlier (Zhang et al., 2017, supra). The volume of liquid per injection was adjusted to 1 nl for all injections in the present study.
# Toxicity test of gentamicin alone or combined with TPCS2a in zebrafish embryos Gentamicin or TPCS2a solution (both in PBS) or mixtures were injected into WT zebrafish embryos at 32 hours post fertilization (hpf). PBS was injected into control embryos. The embryos were protected from light using aluminium foil apart from illumination for 10 minutes using LumiSource, at 34 hpf. Survival of embryos (heartbeat, movement) was monitored daily until 6 dpi.
# zebrafish embryos [2] = assay: Toxicity of vancomycin alone or combined with TPCS2a and illumination for non-infected zebrafish embryos; type: in vivo; conditions: vancomycin alone, 0.4 to 6.4 ng per non-infected embryo
# Experimental: The toxicity of vancomycin (Vanco) alone or combined with TPCS2a and illumination (T) for non-infected zebrafish embryos was examined. Doses of vancomycin (0.4, 1.6 or 6.4 ng per 1 nl of PBS), or combined with 2.5*10^−3 ng TPCS2a per 1 nl of PBS, were injected per embryo. […] The initial group sizes were 27 to 29 embryos.
# Staphylococcus aureus = conditions: vancomycin alone 0.4 ng; 4300 CFU/embryo
# Experimental: To investigate whether PCI enhanced the antimicrobial efficacy of vancomycin against Staphylococcus aureus infection, S. aureus-infected zebrafish embryos were treated with vancomycin alone (0.4 ng) or combined with TPCS2a (2.5*10^−3 ng). PBS mock treatment was used as control. After injections, zebrafish embryos were maintained group-wise in petri-dishes containing E3 medium. The petri-dishes were placed on the Lumisource illumination device and embryos were illuminated for 10 minutes. Initial group sizes were 29 or 30 embryos. The difference between survival of the vancomycin alone group and the vancomycin-TPCS2a/illumination group was analyzed using Log-rank test, *p≤0.033.
# Raw 264.7 cells [3] = assay: Propidium iodide influx, loss of viability of Raw 264.7 cells; type: cell-based, mouse; conditions: TPPS2a 0.25 μg/ml + S. epidermidis (40:1); illuminated for 5 minutes
# Experimental: Raw 264.7 cells were seeded in a 96-well plate (polystyrene Nunclon™ clear TC plate, flat bottom, Greiner, The Netherlands) at a concentration of 1×10^5 cells/well and incubated overnight in RPMI at 37° C. in a humidified atmosphere containing 5% CO2 (unless specified otherwise). The cells were subsequently incubated overnight in 200 μl of RPMI containing gentamicin (15.6 to 1000 μg/ml), or incubated for 2 hours in RPMI containing photosensitizer TPPS2a (0.1 to 0.4 μg/ml) (PCI Biotech AS, Norway) which was replaced with refresh RPMI in order to remove unbound TPPS2a before incubation of another 2 hours. Raw 264.7 cells incubated in RPMI all the time were used as controls. […] After illumination, cells were incubated in refresh RPMI for 24 hours. The effect of gentamicin and of TPPS2a on the metabolic activity of Raw 264.7 cells was tested using MTT at 24 hours after incubation or by WST-1 assay directly and at 24 hours after illumination, respectively, according to the manufacturer's instruction (Cell MTT or WST-1 assay kit, Sigma-Aldrich, The Netherlands). […] The influx of propidium iodide was measured to quantify the loss of cell viability directly or at 24 hours after illumination.
# [4] = system: intracellular S. epidermidis in Raw 264.7 cells; assay: Intracellular antimicrobial activity assay; type: cell-based
# Experimental: After culture S. epidermidis bacteria were pelleted, re-suspended in 1.5 ml of PBS mixed with 0.5 ml of human serum (H1 serum, Cat […], Bio Whittaker, The Netherlands) and incubated for 20 minutes for opsonization. The inoculum was adjusted to 1.8×10^8 CFU/ml with RPMI. Medium of cells was replaced by 40 μl of the bacterial inoculum (bacteria to cell ratio of 40:1) and phagocytosis was allowed to proceed for 45 minutes. […] Raw 264.7 cells were detached by incubation in 100 μl of RPMI containing 0.5 mM EDTA. Detached cells were transferred to a vial and lysed with 40 μl of 1% saponine by incubation in a waterbath sonicator for 5 minutes (Transsonic 460, Elma Schmldbaur GmbH, Germany). The sonicate was centrifuged, and the pelleted bacteria were washed repeatedly and re-suspended in PBS before quantitative culture of serial 10-fold dilutions. Intracellular surviving S. epidermidis in Raw 264.7 cells were expressed as numbers of CFU per well. […] After illumination, cells were incubated overnight, lysed before quantitative culture of surviving bacteria.
# [5] = system: S. epidermidis strain O-47; assay: MIC and MBC of gentamicin for S. epidermidis in RPMI; type: cell-based; conditions: S. epidermidis O-47; RPMI medium supplemented with 5% fetal calf serum
# Description: An “antibacterial agent” is an entity (e.g. a molecule) which has the ability to kill, damage or prevent the replication of selected bacteria under in vitro conditions, e.g. when in direct contact under culture conditions. The bacteria are preferably as described herein. (As referred to herein bacteria are referred to in both the singular and plural. In particular they are referred to in the singular when defining the type of bacteria to be targeted (i.e. the type, e.g. species, applicable to each bacterium) and in the plural when referring to the treatment to which they may be subjected (i.e. treatment of multiple microorganisms).) In particular, the antibacterial activity is assessed by determining the MIC or MBC value against one or more bacteria, e.g. against a Staphylococcus bacteria. Antibacterial activity may be determined by reference to the MIC value, minimum inhibition concentration (MIC), which is defined as the minimum concentration of an antimicrobial agent that inhibits visible growth of micro-organisms in specified liquid media after overnight incubation. Alternatively antibacterial activity may be determined by the minimum bactericidal concentration (MBC) which is the minimum concentration that kills 99.9% of the bacteria during this incubation period. […]
# Raw 264.7 cells [6] = assay: MTT metabolic activity of Raw 264.7 cells (gentamicin cytotoxicity); type: cell-based, mouse; conditions: after incubation of 24 hours
# Experimental: Raw 264.7 cells were seeded in a 96-well plate (polystyrene Nunclon™ clear TC plate, flat bottom, Greiner, The Netherlands) at a concentration of 1×10^5 cells/well and incubated overnight in RPMI at 37° C. in a humidified atmosphere containing 5% CO2 (unless specified otherwise). The cells were subsequently incubated overnight in 200 μl of RPMI containing gentamicin (15.6 to 1000 μg/ml), or incubated for 2 hours in RPMI containing photosensitizer TPPS2a (0.1 to 0.4 μg/ml) (PCI Biotech AS, Norway) which was replaced with refresh RPMI in order to remove unbound TPPS2a before incubation of another 2 hours. Raw 264.7 cells incubated in RPMI all the time were used as controls. The cells were protected from light using aluminium foil apart from illumination of 15 minutes using LumiSource (PCI Biotech AS, Norway). After illumination, cells were incubated in refresh RPMI for 24 hours. The effect of gentamicin and of TPPS2a on the metabolic activity of Raw 264.7 cells was tested using MTT at 24 hours after incubation or by WST-1 assay directly and at 24 hours after illumination, respectively, according to the manufacturer's instruction (Cell MTT or WST-1 assay kit, Sigma-Aldrich, The Netherlands). […] The influx of propidium iodide was measured to quantify the loss of cell viability directly or at 24 hours after illumination.
# S aureus ATCC 49230 = assay: Treatment of S. aureus-infected zebrafish embryos with gentamicin alone or combined with TPCS2a; type: in vivo; conditions: 0.4, 0.1 or 0.05 ng gentamicin, without or with 2.5*10^−3 ng TPCS2a; illumination 10 minutes
# Experimental: as §1
# Wild type zebrafish embryos were intravenously injected with a suitable dose of S aureus ATCC 49230 via the blood island at 30 hpf, and randomly divided into groups for different treatments. At 32 hpf 1 nl of PBS solution containing gentamicin alone (0.05, 0.1 or 0.4 μg/ml) or combined with 0.25 μg/ml TPCS2a (to provide 2.5×10^−3 ng) was intravenously injected. Control embryos received PBS injections. The embryos were protected from light using aluminium foil apart from illumination of 10 minutes, at 34 hpf, and separately maintained in E3 medium, which was refreshed daily. Survival was monitored until 6 dpi.
molecule,measurement,setting,value
tetraphenyl chlorin disulphonate [TPCS2a],toxicity to zebrafish embryos (survival),zebrafish embryos [1],dose-dependent toxicity
same,maximal non-toxic concentrations,zebrafish embryos [1],2.5*10^−3 ng/embryo
CN[C@H](CC(C)C)C(=O)N[C@H]1C(=O)N[C@@H](CC(N)=O)C(=O)N[C@H]2C(=O)N[C@H]3C(=O)N[C@H](C(=O)N[C@H](C(=O)O)c4cc(O)cc(O)c4-c4cc3ccc4O)[C@H](O)c3ccc(c(Cl)c3)Oc3cc2cc(c3O[C@@H]2O[C@H](CO)[C@@H](O)[C@H](O)[C@H]2O[C@H]2C[C@](C)(N)[C@H](O)[C@H](C)O2)Oc2ccc(cc2Cl)[C@H]1O [vancomycin],toxicity to zebrafish embryos,zebrafish embryos [2],dose-dependent toxicity
same,survival of S. aureus-infected embryos,Staphylococcus aureus,had no effect on the survival of the infected embryos
"O=S(=O)(O)c1ccc(-c2c3nc(c(-c4ccccc4)c4ccc([nH]4)c(-c4ccccc4)c4nc(c(-c5ccc(S(=O)(=O)O)cc5)c5ccc2[nH]5)C=C4)C=C3)cc1 [TPPS2a, tetraphenyl porphyrin disulphonate]",reduction of cell viability (influx of propidium iodide),Raw 264.7 cells [3],not statistically different from the control group
same,intracellular survival of S. epidermidis vs non-treated illuminated group,"[4]; TPPS2a only 0.25 μg/ml, with illumination",did not affect intracellular survival of S. epidermidis
gentamicin,toxicity to zebrafish embryos (survival),zebrafish embryos [1],dose-dependent toxicity
same,maximal non-toxic concentrations,zebrafish embryos [1],2 ng/embryo
same,minimal bactericidal concentration,[5],0.33 µg/mL
same,minimal inhibitory concentration,[5],0.04 µg/mL
same,killing of intracellular S. epidermidis,"[4]; gentamicin only 1, 10 or 30 μg/ml, regardless of time of illumination",did not kill intracellular S. epidermidis
same,effect of PCI on the efficacy of gentamicin,"[4]; lowest dose of gentamicin, with PCI, in vitro",no effect of PCI
same,extracellular concentrations that did not reduce the metabolic activity of Raw 264.7 cells,Raw 264.7 cells [6],up to 250 μg/ml
same,survival of S. aureus-infected embryos compared to PBS mock treatment,S aureus ATCC 49230,significantly improved the survival
